Tests used:
TMPRSS2 mRNA = assay: TMPRSS2 expression in C4-2B cells (Example 30); format: cell-based, human; details: 48 hrs
Summary of the method: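 C4-2B cells were plated at 1,000 cells per well in complete medium, or at 2,000 cells per well in CSS medium with 1 nM DHT. ISIS 549148 served as the negative control. AR, PSA and TMPRSS2 RNA levels were measured after 48 hrs.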

[1] = cynomolgus monkey, in vivo, sc, 40 mg/kg
[2] = tested on: prostate-specific antigen (PSA) mRNA; assay: Time-course PSA expression in C4-2B cells; format: cell-based, human
Summary of the method: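 C4-2B cells at 1,000/well in complete medium, treated with antisense oligonucleotide; ISIS 549148 as negative control. PSA and TMPRSS2 mRNA measured after 8, 24 and 48 h, given as percent inhibition relative to non-treated cells.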

LNCaP cells [3] = assay: LNCaP cell proliferation, ASO in combination with MDV3100 (Example 20); format: cell-based, human; details: for Proliferation (% untreated control) in LNCaP without MDV-3100: 5 days
Experimental: LNCaP cells were plated at 1,000 cells per well. […] ISIS 549148 was included as a negative control. […] After a treatment period of 5 days, the proliferative capacity of the cancer cells was measured with CellTiter 96® AQueous One or CellTiter-Glo® Solution Cell Proliferation kit (Promega), following the manufacturer's instructions. […]

LNCaP cells [4] = assay: LNCaP cell proliferation (complete or CSS+DHT medium); format: cell-based, human; details: 5 days; for Proliferation (% untreated control) in LNCaP cells cultured in CSS + DHT medium: CSS + 1 nM DHT medium
Summary of the method: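 Proliferation of LNCaP cells read after 5 days of treatment in complete medium or charcoal-stripped serum medium plus 1 nM DHT, using CellTiter 96 AQueous One (MTS) or CellTiter-Glo.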

full length AR mRNA = assay: Full-length AR RNA in 22RV1 cells (complete, CSS+DHT medium); format: cell-based, human; details: RNAiMax, 48 hrs
Experimental: Cells were plated at 1,000 cells per well. […] After an incubation period of 48 hrs, RNA levels of full length AR, the V7 variant, PSA and TMPRSS2 were measured.
After an incubation period of 48 hrs, RNA levels of full length AR, the V7 variant, PSA and TMPRSS2 were measured.
Cells were plated at 2,000 cells per well and cultured in CSS media for 16 hours. […] After 4 hrs, 1 nM DHT was added. […] After an incubation period of 48 hrs, RNA levels of AR, AR V7 variant, PSA and TMPRSS2 were measured.

full-length AR = assay: Western blot of full-length AR in C4-2B cells (time course); format: cell-based, human; details: 24 hours and 48 hours, normalized to GAPDH
Experimental: Protein levels in the cells were also analyzed. The cells were harvested in RIPA buffer containing protease inhibitors. The presence of bands for full-length AR was detected by western blot using AR antibody (N-20, SC-816, Santa Cruz Biotechnology).

AR mRNA = assay: AR RNA expression in LNCaP cells (complete, CSS, CSS+DHT medium); format: cell-based, human; details: for Percent expression of AR in LNCaP cells cultured in CSS + DHT medium: CSS + DHT (1 nM) medium; for Percent expression of AR in LNCaP cells cultured in CSS + DHT medium / Percent expression of AR in LNCaP cells cultured in CSS medium: 48 hrs; for Percent expression of AR in LNCaP cells cultured in complete medium: 48 hours

Sequence: TTGATTTAATGGTTGC [ISIS 560131] (MOE and (S)-cEt gapmer chemistry, further chemistry not given here) [targets intron 1]
- Percent inhibition of TMPRSS2 expression (TMPRSS2 mRNA; CSS + DHT medium, 0.04 μM): 0%
- Percent inhibition of TMPRSS2 expression (TMPRSS2 mRNA; CSS + DHT medium, 0.2 μM): 34%
- Percent inhibition of TMPRSS2 expression (TMPRSS2 mRNA; CSS + DHT medium, 1 μM): 60%
- Percent inhibition of TMPRSS2 expression (TMPRSS2 mRNA; CSS + DHT medium, 5.0 μM): 76%
- Percent inhibition of TMPRSS2 expression (TMPRSS2 mRNA; complete medium, 0.04 μM): 46%
- Percent inhibition of TMPRSS2 expression (TMPRSS2 mRNA; complete medium, 0.2 μM): 71%
- Percent inhibition of TMPRSS2 expression (TMPRSS2 mRNA; complete medium, 1 μM): 72%
- Percent inhibition of TMPRSS2 expression (TMPRSS2 mRNA; complete medium, 5.0 μM): 75%
- ALT [1]: 68 IU/L
- AST [1]: 87 IU/L
- Albumin [1]: 4.0 g/dL
- Percent inhibition of PSA expression compared to the control group in 8 hours ([2]; 0.04 μM): 12%
- Percent inhibition of PSA expression compared to the control group in 24 hours ([2]; 0.04 μM): 27%
- Percent inhibition of PSA expression compared to the control group in 48 hours ([2]; 0.04 μM): 20%
- Percent inhibition of PSA expression compared to the control group in 8 hours ([2]; 0.2 μM): 0%
- Percent inhibition of PSA expression compared to the control group in 24 hours ([2]; 0.2 μM): 46%
- Percent inhibition of PSA expression compared to the control group in 48 hours ([2]; 0.2 μM): 61%
- Percent inhibition of PSA expression compared to the control group in 8 hours ([2]; 1 μM): 3%
- Percent inhibition of PSA expression compared to the control group in 24 hours ([2]; 1 μM): 56%
- Percent inhibition of PSA expression compared to the control group in 48 hours ([2]; 1 μM): 71%
- Percent inhibition of PSA expression compared to the control group in 8 hours ([2]; 5.0 μM): 1%
- Percent inhibition of PSA expression compared to the control group in 24 hours ([2]; 5.0 μM): 60%
- Percent inhibition of PSA expression compared to the control group in 48 hours ([2]; 5.0 μM): 80%
- PSA expression ([2]; time course): reduced PSA and TMPRSS2 expression in the cells relative to the control set at the 24 hr and 48 hr time points
- Proliferation (% untreated control) in LNCaP with 0.08 μM MDV-3100 (LNCaP cells [3]; ASO dose 0.04 μM + 0.08 μM MDV-3100): 59 % untreated control
- Proliferation (% untreated control) in LNCaP with 0.4 μM MDV-3100 (LNCaP cells [3]; ASO dose 0.04 μM + 0.4 μM MDV-3100): 50 % untreated control
- Proliferation (% untreated control) in LNCaP with 2.0 μM MDV-3100 (LNCaP cells [3]; ASO dose 0.04 μM + 2.0 μM MDV-3100): 42 % untreated control
- Proliferation (% untreated control) in LNCaP with […] MDV-3100 (LNCaP cells [3]; ASO dose 0.04 μM + […] MDV-3100): 71 % untreated control
- Proliferation (% untreated control) in LNCaP without MDV-3100 (LNCaP cells [3]; ASO dose 0.04 μM): 76 % untreated control
- Proliferation (% untreated control) in LNCaP with 0.08 μM MDV-3100 (LNCaP cells [3]; ASO dose 0.08 μM + 0.08 μM MDV-3100): 99 % untreated control
- Proliferation (% untreated control) in LNCaP with 0.4 μM MDV-3100 (LNCaP cells [3]; ASO dose 0.08 μM + 0.4 μM MDV-3100): 68 % untreated control
- Proliferation (% untreated control) in LNCaP with 2.0 μM MDV-3100 (LNCaP cells [3]; ASO dose 0.08 μM + 2.0 μM MDV-3100): 45 % untreated control
- Proliferation (% untreated control) in LNCaP with […] MDV-3100 (LNCaP cells [3]; ASO dose 0.08 μM + […] MDV-3100): 103 % untreated control
- Proliferation (% untreated control) in LNCaP without MDV-3100 (LNCaP cells [3]; ASO dose 0.08 μM): 106 % untreated control
- Proliferation (% untreated control) in LNCaP with 0.08 μM MDV-3100 (LNCaP cells [3]; ASO dose 0.2 μM + 0.08 μM MDV-3100): 48 % untreated control
- Proliferation (% untreated control) in LNCaP with 0.4 μM MDV-3100 (LNCaP cells [3]; ASO dose 0.2 μM + 0.4 μM MDV-3100): 40 % untreated control
- Proliferation (% untreated control) in LNCaP with 2.0 μM MDV-3100 (LNCaP cells [3]; ASO dose 0.2 μM + 2.0 μM MDV-3100): 38 % untreated control
- Proliferation (% untreated control) in LNCaP with […] MDV-3100 (LNCaP cells [3]; ASO dose 0.2 μM + […] MDV-3100): 49 % untreated control
- Proliferation (% untreated control) in LNCaP without MDV-3100 (LNCaP cells [3]; ASO dose 0.2 μM): 50 % untreated control
- Proliferation (% untreated control) in LNCaP with 0.08 μM MDV-3100 (LNCaP cells [3]; ASO dose 1.0 μM + 0.08 μM MDV-3100): 27 % untreated control
- Proliferation (% untreated control) in LNCaP with 0.4 μM MDV-3100 (LNCaP cells [3]; ASO dose 1.0 μM + 0.4 μM MDV-3100): 26 % untreated control
- Proliferation (% untreated control) in LNCaP with 2.0 μM MDV-3100 (LNCaP cells [3]; ASO dose 1.0 μM + 2.0 μM MDV-3100): 23 % untreated control
- Proliferation (% untreated control) in LNCaP with […] MDV-3100 (LNCaP cells [3]; ASO dose 1.0 μM + […] MDV-3100): 25 % untreated control
- Proliferation (% untreated control) in LNCaP without MDV-3100 (LNCaP cells [3]; ASO dose 1.0 μM): 26 % untreated control
- synergy with MDV3100 (LNCaP cells [3]; LNCaP cells): synergistic with MDV3100
- cell proliferation inhibited, combination (LNCaP cells [3]; LNCaP cells, 0.04 μM ASO in combination with 0.08 μM MDV3100): 41%
- inhibited cell proliferation, ASO alone (LNCaP cells [3]; LNCaP cells, ASO alone at 0.04 μM): 24%
- Proliferation (% untreated control) in LNCaP cells cultured in CSS + DHT medium (LNCaP cells [4]; 0.04 μM): 97 % untreated control
- Proliferation (% untreated control) in LNCaP cells cultured in CSS + DHT medium (LNCaP cells [4]; 0.2 μM): 81 % untreated control
- Proliferation (% untreated control) in LNCaP cells cultured in CSS + DHT medium (LNCaP cells [4]; 1 μM): 46 % untreated control
- Proliferation (% untreated control) in LNCaP cells cultured in CSS + DHT medium (LNCaP cells [4]; 5.0 μM): 8 % untreated control
- proliferation of LNCaP cells (LNCaP cells [4]; complete medium or CSS+1 nM DHT): reduced proliferation of the cells in a dose dependent compared to the control
- Proliferation (% untreated control) in LNCaP cells cultured in complete medium (LNCaP cells [4]; 0.04 μM): 96 % untreated control
- Proliferation (% untreated control) in LNCaP cells cultured in complete medium (LNCaP cells [4]; 0.2 μM): 70 % untreated control
- Proliferation (% untreated control) in LNCaP cells cultured in complete medium (LNCaP cells [4]; 1 μM): 48 % untreated control
- Proliferation (% untreated control) in LNCaP cells cultured in complete medium (LNCaP cells [4]; 5.0 μM): 45 % untreated control
- Percent inhibition of full-length AR (full length AR mRNA; CSS + DHT medium, 1.34 nM): 65%
- Percent inhibition of full-length AR (full length AR mRNA; CSS + DHT medium, 4.0 nM): 85%
- Percent inhibition of full-length AR (full length AR mRNA; CSS + DHT medium, 13.4 nM): 93%
- Percent inhibition of full-length AR (full length AR mRNA; complete medium, 1.34 nM): 7%
- Percent inhibition of full-length AR (full length AR mRNA; complete medium, 4.0 nM): 19%
- Percent inhibition of full-length AR (full length AR mRNA; complete medium, 13.4 nM): 49%
- Percent inhibition of full-length AR (full length AR mRNA; complete medium, 40 nM): 76%
- full-length AR protein (western blot) (full-length AR): significantly reduced
- Percent expression of AR in LNCaP cells cultured in CSS + DHT medium (AR mRNA; 0.04 μM): 101%
- Percent expression of AR in LNCaP cells cultured in CSS + DHT medium (AR mRNA; 0.2 μM): 71%
- Percent expression of AR in LNCaP cells cultured in CSS + DHT medium (AR mRNA; 1 μM): 27%
- Percent expression of AR in LNCaP cells cultured in CSS + DHT medium (AR mRNA; 5.0 μM): 10%
- Percent expression of AR in LNCaP cells cultured in CSS medium (AR mRNA; 0.04 μM): 81%
- Percent expression of AR in LNCaP cells cultured in CSS medium (AR mRNA; 0.2 μM): 46%
- Percent expression of AR in LNCaP cells cultured in CSS medium (AR mRNA; 1 μM): 16%
- Percent expression of AR in LNCaP cells cultured in CSS medium (AR mRNA; 5.0 μM): 5%
- Percent expression of AR in LNCaP cells cultured in complete medium (AR mRNA; 0.04 μM): 101%
- Percent expression of AR in LNCaP cells cultured in complete medium (AR mRNA; 0.2 μM): 53%
- Percent expression of AR in LNCaP cells cultured in complete medium (AR mRNA; 1 μM): 17%
- Percent expression of AR in LNCaP cells cultured in complete medium (AR mRNA; 5.0 μM): 7%

Reference: patent publication USRE48461E1, “Modulation of androgen receptor expression” (Ionis Pharmaceuticals, Inc., priority 2012, dated 2021)
